Assay results from patent US6710051B1, “Screening method” (Klaus Trier APS, priority 1997, dated 2004).
Like-named read-outs stand apart in the source and are kept apart here. Marks after values point to notes of the source that are not given here.

What was measured:
eye [1] = details: animal, abnormal postnatal growth of the eye; cited from earlier work
sclera [2] = test: Content of collagen specific amino acids in rabbit sclera after long term treatment (HPLC); type: in vivo; design: Hydroxylysine Decr. compared to the control / Hydroxyproline Inc. compared to the control / Proline Inc. compared to the control: concentration or dose not given beside the values; details: for Hydroxylysine content / Hydroxyproline content / Proline content: dried defatted weight
From the text: (§1) Test animal: Charles River Deutschland Chinchilla Bastard female rabbits.
(§2) Number of animals: 6 test animals and 6 control animals
(§3) Age: approximately 8 weeks at the commencement of the test.
(§4) Weight: 1.4-1.9 kg at the commencement of the test.
(§5) Cages: The animals live in identical cages made of stainless steel (Scanbur), length 1 m, depth 0.52 m, height 0.5 m.
(§6) Amount of food: Increasing from 75 g per day at the commencement of the test up to 130 g after three months.
(§7) Experimental drinking water 1 contained theophyllin in a dose equivalent of 27 mg increasing to 63 mg (added as theophyllin and ethylendiamin in a dose of 33 to 77 mg) daily.
(§8) Experimental drinking water 2 contained fluoxetine (Fontex, Lilly) in a dose equivalent of 2 mg increasing to 5 mg daily.
(§9) Experimental diet 3 was added 7-methylxanthine 500 mg per kg Stanrab standard diet equivalent of a daily 7-methylxanthine dose of […] per day.
(§10) Experimental diet 4 was added theobromine (3,7-dimethylxanthine) 500 mg per kg Stanrab standard diet equivalent of a daily theobromine dose of […] per day.
(§11) Experimental diet 5 was added acetazolamide 500 mg per kg Stanrab standard diet equivalent of a daily acetazolamide dose of […] per day.
(§12) Collection of sample: Sclera biopsies are taken for analysis for proteoglycane content, distribution between the individual glycosaminoglycanes and the content of collagen specific amino acids. Four tests from each animal: Two samples from the front, 5×10 mm along limbus (without cornea), and two samples from the back, punch 10 mm corresponding to the center of the retina. Furthermore, tests are taken for electron microscopy (EM) from two animals in each group.
Samples for analysis for content of collagen specific amino acids are frozen down immediately. The amino acid content is determined by HPLC-chromatography.
The dried tissue with constant weight is minced into very fine particles with a pair of scissors, approximately 20 per piece of tissue. The small flakes from each original piece of tissue ate divided into two equally sized portions, one of which is employed for hydrolysis and the other one is kept for reference. The constant dry weight of each portion is known.
From each resolubilized hydrolysate 3 aliquots of each 8 microliters and 3 aliquots of 40 μl are taken and transferred to separate polypropylene tubes in which 20 microliters of a solution of internal standard substances citrulline and 2 aminobutyric acid were added where the further method takes place.
The taken aliquots from hydrolysate are dried in a vacuum exsiccator at 35° C. over night and subsequently submitted to derivatization with phenylisothiocyanate.
The resulting phenylisothiocarbamates are transferred to the HPLC instrument for separation and quantification. A new set of calibration curves is established, 1 curve for each of the 19 amino acids, prior to the analysis of the samples from one investigation.
The concentration range of standard samples exceed the ranges of amino acid concentrations in the unknowns. Hydroxyproline and proline are quantitated from the 8 microliter aliquots, and hydroxylysine is quantitated from the 40 microliter aliquots.

sclera [3] = test: Content of proteoglycanes in rabbit sclera after long term treatment (alcian blue method); type: in vivo; design: Proteoglycanes Decrease compared to the control, anterior sclera / Proteoglycanes Increase compared to the control, anterior sclera / Proteoglycanes Increase compared to the control, posterior sclera / Effect on proteoglycan content of posterior sclera in % compared to control: concentration or dose not given beside the values; details: for Effect on proteoglycan content of posterior sclera in % compared to control: rabbit, Examples 2 and 4
Method: as §1, §2, §3, §4
Lightness/Darkness cycle: 12/12 hours.
as §5
Food: Stanrab standard diet from Special Diet Services, P.O. Box 705, Witham Essex CM8 3AD, UK (further details, see Table A).
as §6, §7, §8
Experimental diet 2 was added 4.5 g L-cystine per kg Stanrab standard diet equivalent of a daily L-cystine dose of 338 mg increasing to 585 mg per day. With respect to the supplement of L-cystine, the normal intake per day of the standard diet is 218 mg increasing to 377 mg L-cystine.
as §9, §10, §11
Experimental diet 6 was added 4.5 g L-ornithine per kg Stanrab standard diet equivalent of a daily L-ornithine dose of 338 mg increasing to 585 mg per day.
as §12
Analyses: Samples for proteoglycane analysis are frozen down immediately. The samples are analyzed by Wieslab AB, IDEON, S-223 70 Lund, Sweden, by means of a method which has been described by Björnsson, S., Analytical Biochemistry 210, 282-291 (1993). The method comprises extraction by 20 microliters of 4 M guanidine-HCl, 50 Mm sodium acetate per mg wet weight over night by room temperatures. The extracts are centrifuged in order to remove debris. 20 microliters of supernatant are reduced 1/10 in extraction buffer and 20 microliters of reduced supernatant are mixed with 10 microliters of reagent 1 (see Björnsson, S., Analytical biochemistry 210, 282-291 (1993)) on a shaking table for 15 minutes. 200 microliters of reagent 2 are added and the tests are incubated for 60 minutes in order to precipitate the proteoglycanes. The proteoglycane/alcian blue precipitate is transferred to 96-wells MillBlotD apparatus and washed with 2×200 microliters of 40% DMSO, 0.05 M of MgCl2. The colour intensity of the wells are quantitated by microtech E3 scanner and Scan Analysis software (Biosoft, Cambridge, U.K.). Chrondroitine-6-sulphate (Sigma C4384) is used as the calibrator. All samples are analyzed in duplicate.
The results of longterm treatment with each of the 8 substances specified above are shown in Example 2 (treatment for 12 weeks) and Example 4 (treatment for 10 weeks).

[4] = humans; cited from earlier work
[5] = rabbits; cited from earlier work
eye [6] = details: test animals exposed to visual deprivation; cited from earlier work
[7] = system: retinal pigment epithelium; test: c-wave at ERG and standing potential of the eye; details: in vivo
From the text: Registration of c-Wave at ERG in animals (e.g. rabbits) is a well-developed examination technique (Skoog, K. O., Nilsson, S. E. G., Acta Ophthalmol. (Kph), 52: 759-773 (1974), Jarkman, S., Skoog, K. O., Doc. Ophthalmol., 60: 383-392 (1985)). Also intraoccular administration of test substances for test animals is also a well-described-technique (Textorius O., Doc. Ophthalmol., 63:349-358 (1986)). Alternatively, test substances can be administered intravenously (Jarkman, S., Doc. Ophthalmol. 60: 375-382 (1985)).

[8] = anterior sclera, 3 months treatment
[9] = posterior sclera, 3 months treatment

SMILES: CN1CCN(CC(=O)N2c3ccccc3C(=O)Nc3cccnc32)CC1 [pirenzepine]
- axial longitudinal growth (eye [1]): inhibited

SMILES: Cn1c(=O)c2c(ncn2C)n(C)c1=O [Caffeine, 1,3,7-Trimethylxanthine]
- Hydroxyproline Inc. compared to the control (sclera [2]; [8]): 14%
- Proline Inc. compared to the control (sclera [2]; [8]): 12%
- Hydroxylysine content (sclera [2]; [8]): 39 +/− 19 nanomol/mg tissue
- Hydroxyproline content (sclera [2]; [8]): 688 +/− 36* nanomol/mg tissue
- Proline content (sclera [2]; [8]): 993 +/− 18* nanomol/mg tissue
- Hydroxylysine Decr. compared to the control (sclera [2]; [9]): 14%
- Hydroxyproline Inc. compared to the control (sclera [2]; [9]): 22%
- Proline Inc. compared to the control (sclera [2]; [9]): 17%
- Hydroxylysine content (sclera [2]; [9]): 37 +/− 16 nanomol/mg tissue
- Hydroxyproline content (sclera [2]; [9]): 668 +/− 61 nanomol/mg tissue
- Proline content (sclera [2]; [9]): 947 +/− 38 nanomol/mg tissue
- Proteoglycanes Increase compared to the control, anterior sclera (sclera [3]; 3 months treatment): 19%
- Proteoglycanes Increase compared to the control, posterior sclera (sclera [3]; 3 months treatment): 19%
- Effect on proteoglycan content of posterior sclera in % compared to control (sclera [3]): 119%
- Content of proteoglycanes, anterior sclera (sclera [3]; wet weight, 3 months treatment): 3.2 +/− 0.8 μg PG/mg tissue
- Content of proteoglycanes, posterior sclera (sclera [3]; wet weight, 3 months treatment): 3.2 +/− 0.5 μg PG/mg tissue
- half-life period [4]: approximately 5 hours
- half-life period [5]: approximately 1 hour

SMILES: CN1CCc2cccc3c2[C@H]1Cc1ccc(O)c(O)c1-3 [apomorphine]
- development of myopia (eye [6]): inhibits

SMILES: Cn1c(=O)c2[nH]cnc2n(C)c1=O [Theophylline, 1,3-Dimethylxanthine]
- content of hydroxylysine (in words) (sclera [2]; comment to the examples): reduces
- content of the collagen specific amino acids hydroxyproline and proline (in words) (sclera [2]; comment to the examples): increase
- content of proteoglycanes in sclera (in words) (sclera [3]; comment to the examples): reduces
- Effect on proteoglycan content of posterior sclera in % compared to control (sclera [3]): 100%
- c-wave at ERG [7]: reduces
- standing potential of the eye [7]: reduces
